Patent publication US20170071944A1, “MODULATORS OF TOLL-LIKE RECEPTORS FOR THE TREATMENT OF HIV” (Gilead Sciences, Inc., priority 2015, published 2017)

Tested on: immune cell subsets in PBMC cultures from HIV-1 infected subjects on cART
Assay: Induced immune cell activation in PBMC cultures from HIV-1 infected subjects on cART (flow cytometry)
Type: cell-based, human
Details: for B Cells CD69 % / B Cells CD69 Fold vs DMSO / B Cells CD80 % / B Cells CD80 Fold vs DMSO / DCs CD69 % / DCs CD69 Fold vs DMSO / DCs CD80 % / DCs CD80 Fold vs DMSO / CD4+ T Cells CD25 % / CD4+ T Cells CD25 Fold vs DMSO / CD4+ T Cells CD69 % / CD4+ T Cells CD69 Fold vs DMSO / CD4+ T Cells Perforin % / CD4+ T Cells Perforin Fold vs DMSO / CD8+ T Cells CD25 % / CD8+ T Cells CD25 Fold vs DMSO / CD8+ T Cells CD28 % / CD8+ T Cells CD28 Fold vs DMSO / CD8+ T Cells CD38 % / CD8+ T Cells CD38 Fold vs DMSO / CD8+ T Cells CD69 % / CD8+ T Cells CD69 Fold vs DMSO / Monocytes CD11c % / Monocytes CD11c Fold vs DMSO / Monocytes CD69 % / Monocytes CD69 Fold vs DMSO / Monocytes CD80 % / Monocytes CD80 Fold vs DMSO / NK Cells CD25 % / NK Cells CD25 Fold vs DMSO / NK Cells CD69 % / NK Cells CD69 Fold vs DMSO: 2 days, geometric mean; for B Cells CD69 % / B Cells CD69 Fold vs DMSO / B Cells CD80 % / B Cells CD80 Fold vs DMSO / DCs CD69 % / DCs CD69 Fold vs DMSO / DCs CD80 % / DCs CD80 Fold vs DMSO: N = 4; for CD4+ T Cells CD25 % / CD4+ T Cells CD25 Fold vs DMSO / CD4+ T Cells CD69 % / CD4+ T Cells CD69 Fold vs DMSO / CD4+ T Cells Perforin % / CD4+ T Cells Perforin Fold vs DMSO / CD8+ T Cells CD25 % / CD8+ T Cells CD25 Fold vs DMSO / CD8+ T Cells CD28 % / CD8+ T Cells CD28 Fold vs DMSO / CD8+ T Cells CD38 % / CD8+ T Cells CD38 Fold vs DMSO / CD8+ T Cells CD69 % / CD8+ T Cells CD69 Fold vs DMSO / Monocytes CD11c % / Monocytes CD11c Fold vs DMSO / Monocytes CD69 % / Monocytes CD69 Fold vs DMSO / Monocytes CD80 % / Monocytes CD80 Fold vs DMSO / NK Cells CD25 % / NK Cells CD25 Fold vs DMSO / NK Cells CD69 % / NK Cells CD69 Fold vs DMSO: N = 6
Procedure: TLR8 modulating compound affects activation of distinct cell populations, PBMCs were purified from HIV-1 infected subjects on cART, as described in Example 121 (anonymized participant IDs 184, 185, 188, 189, 190, and 191). […] After incubation, PBMCs were harvested and stained with antibodies conjugated to specific fluorophores (BD Biosciences) to delineate immune cell subsets: CD4 T cells (CD3+ CD4+ CD8-), CD8 T cells (CD3+ CD8+ CD4-), NK cells (CD3-CD56+ CD16+), monocytes (CD3-CD14+), B cells (CD3-CD19+), and peripheral dendritic cells (DCs), defined as positive for HLA-DR and negative for a panel of markers: CD3, CD14, CD16, CD19, CD20, CD56 (Lin-1 lineage panel, BD Biosciences).
Additional markers of activation, maturation, and effector function were included for cell subsets, as follows: CD4 and CD8 T cells (CD25, CD38, CD69, IFN-γ, granzyme B, perforin, TNF-α), NK cells (CD25, CD69, IFN-γ), monocytes (CD11c, CD16, CD80, CD86, CD163, TNF-α), B cells (CD40, CD69, CD80, CD86), and DC (CD11c, CD69, CD80, CD86, CD123, and CD163). Cells were stained for surface markers (CD3, CD4, CD8, CD11c, CD14, CD16, CD25, CD69, CD80, CD86, CD163), washed, treated with fixation and permeabilization buffer (eBioscience), and stained for intracellular markers (IFN-γ, granzyme B, perforin, TNF-α). Cells were evaluated by flow cytometry on a LSR Fortessa (BD Biosciences), and data was analyzed with FlowJo software (TreeStar).
Data are expressed as geometric mean percentage (%) and as geometric mean fold-activation (Fold) for each marker and for each PBMC subset obtained from 4 or 6 subjects, as indicated. Fold activation is calculated as a ratio of the % positive for each marker for each PBMC subset at the indicated concentration of the compound of Example 15 relative to % positive for DMSO treated samples. Fold activations that are 1.5 are in bold.

CCCC[C@H](CO)Nc1nc(N)nc2cccnc12 [Example 15]
Perforin in CD8+ T cells with treatment: did not increase
B Cells CD69 % (Example 15 10 nM): 10.0%
B Cells CD69 Fold vs DMSO (Example 15 10 nM): 1.2 fold
B Cells CD80 % (Example 15 10 nM): 2.6%
B Cells CD80 Fold vs DMSO (Example 15 10 nM): 1.6 fold
DCs CD69 % (Example 15 10 nM): 0.3%
DCs CD69 Fold vs DMSO (Example 15 10 nM): 0.1 fold
DCs CD80 % (Example 15 10 nM): 49.8%
DCs CD80 Fold vs DMSO (Example 15 10 nM): 1.8 fold
CD4+ T Cells CD25 % (Example 15 10 nM): 1.5%
CD4+ T Cells CD25 Fold vs DMSO (Example 15 10 nM): 0.6 fold
CD4+ T Cells CD69 % (Example 15 10 nM): 5.7%
CD4+ T Cells CD69 Fold vs DMSO (Example 15 10 nM): 0.7 fold
CD4+ T Cells Perforin % (Example 15 10 nM): 11.8%
CD4+ T Cells Perforin Fold vs DMSO (Example 15 10 nM): 1.5 fold
CD8+ T Cells CD25 % (Example 15 10 nM): 0.2%
CD8+ T Cells CD25 Fold vs DMSO (Example 15 10 nM): 0.6 fold
CD8+ T Cells CD28 % (Example 15 10 nM): 0.1%
CD8+ T Cells CD28 Fold vs DMSO (Example 15 10 nM): 0.9 fold
CD8+ T Cells CD38 % (Example 15 10 nM): 25.3%
CD8+ T Cells CD38 Fold vs DMSO (Example 15 10 nM): 0.9 fold
CD8+ T Cells CD69 % (Example 15 10 nM): 3.7%
CD8+ T Cells CD69 Fold vs DMSO (Example 15 10 nM): 0.8 fold
Monocytes CD11c % (Example 15 10 nM): 0.4%
Monocytes CD11c Fold vs DMSO (Example 15 10 nM): 0.6 fold
Monocytes CD69 % (Example 15 10 nM): 0.8%
Monocytes CD69 Fold vs DMSO (Example 15 10 nM): 0.3 fold
Monocytes CD80 % (Example 15 10 nM): 33.0%
Monocytes CD80 Fold vs DMSO (Example 15 10 nM): 1.1 fold
NK Cells CD25 % (Example 15 10 nM): 0.2%
NK Cells CD25 Fold vs DMSO (Example 15 10 nM): 0.4 fold
NK Cells CD69 % (Example 15 10 nM): 0.8%
NK Cells CD69 Fold vs DMSO (Example 15 10 nM): 0.4 fold
B Cells CD69 % (Example 15 100 nM): 3.9%
B Cells CD69 Fold vs DMSO (Example 15 100 nM): 0.5 fold
B Cells CD80 % (Example 15 100 nM): 1.7%
B Cells CD80 Fold vs DMSO (Example 15 100 nM): 1.1 fold
DCs CD69 % (Example 15 100 nM): 1.0%
DCs CD69 Fold vs DMSO (Example 15 100 nM): 0.4 fold
DCs CD80 % (Example 15 100 nM): 67.2%
DCs CD80 Fold vs DMSO (Example 15 100 nM): 2.4 fold
CD4+ T Cells CD25 % (Example 15 100 nM): 3.9%
CD4+ T Cells CD25 Fold vs DMSO (Example 15 100 nM): 1.7 fold
CD4+ T Cells CD69 % (Example 15 100 nM): 7.7%
CD4+ T Cells CD69 Fold vs DMSO (Example 15 100 nM): 1.0 fold
CD4+ T Cells Perforin % (Example 15 100 nM): 10.4%
CD4+ T Cells Perforin Fold vs DMSO (Example 15 100 nM): 1.3 fold
CD8+ T Cells CD25 % (Example 15 100 nM): 0.3%
CD8+ T Cells CD25 Fold vs DMSO (Example 15 100 nM): 1.0 fold
CD8+ T Cells CD28 % (Example 15 100 nM): 0.1%
CD8+ T Cells CD28 Fold vs DMSO (Example 15 100 nM): 1.1 fold
CD8+ T Cells CD38 % (Example 15 100 nM): 29.2%
CD8+ T Cells CD38 Fold vs DMSO (Example 15 100 nM): 1.0 fold
CD8+ T Cells CD69 % (Example 15 100 nM): 3.4%
CD8+ T Cells CD69 Fold vs DMSO (Example 15 100 nM): 0.7 fold
Monocytes CD11c % (Example 15 100 nM): 3.6%
Monocytes CD11c Fold vs DMSO (Example 15 100 nM): 5.2 fold
Monocytes CD69 % (Example 15 100 nM): 1.8%
Monocytes CD69 Fold vs DMSO (Example 15 100 nM): 0.6 fold
Monocytes CD80 % (Example 15 100 nM): 47.7%
Monocytes CD80 Fold vs DMSO (Example 15 100 nM): 1.6 fold
NK Cells CD25 % (Example 15 100 nM): 0.8%
NK Cells CD25 Fold vs DMSO (Example 15 100 nM): 1.6 fold
NK Cells CD69 % (Example 15 100 nM): 1.1%
NK Cells CD69 Fold vs DMSO (Example 15 100 nM): 0.6 fold
